# Patent US20150344457A1, “METHODS OF INHIBITING PRMT5” (EPIZYME, INC., priority 2012, published 2015)
# Assays:
# Z-138 cells [1] = assay: Z-138 Methylation Assay (In Cell Western for symmetric di-methyl arginine and DNA content); type: cell-based; conditions: Homo sapiens, Table A-2, 96 hours, symmetric di-methyl arginine, read-out: ICW EC50
# From the text: Z-138 suspension cells were purchased from ATCC (American Type Culture Collection, Manassas, Va.). RPMI/Glutamax medium, penicillin-streptomycin, heat inactivated fetal bovine serum, and D-PBS were purchased from Life Technologies, Grand Island, N.Y., USA. Odyssey blocking buffer, 800CW goat anti-rabbit IgG (H+L) antibody, and Licor Odyssey infrared scanner were purchased from Licor Biosciences, Lincoln, Nebr., USA. Symmetric di-methyl arginine antibody was purchased from EMD Millipore, Billerica, Mass., USA. 16% Paraformaldehyde was purchased from Electron Microscopy Sciences, Hatfield, Pa., USA.
# Z-138 suspension cells were maintained in growth medium (RPMI 1640 supplemented with 10% v/v heat inactivated fetal bovine serum and 100 units/mL penicillin-streptomycin) and cultured at 37° C. under 5% CO2.
# Cell Treatment, in Cell Western (ICW) for Detection of Symmetric Di-Methyl Arginine and DNA Content.
# Z-138 cells were seeded in assay medium at a concentration of 50,000 cells per mL to a 384-well cell culture plate with 50 μL per well. Compound (100 nL) from 384 well source plates was added directly to 384 well cell plate. Plates were incubated at 37° C., 5% CO2 for 96 hours. After four days of incubation, 40 μL of cells from incubated plates were added to poly-D-lysine coated 384 well culture plates (BD Biosciences 356697). Plates were incubated at room temperature for 30 minutes then incubated at 37° C., 5% CO2 for 5 hours. After the incubation, 40 μL per well of 8% paraformaldehyde in PBS (16% paraformaldahyde was diluted to 8% in PBS) was added to each plate and incubated for 30 minutes. Plates were transferred to a Biotek 405 plate washer and washed 5 times with 100 μL per well of wash buffer (1×PBS with 0.1% Triton X-100 (v/v)). Next 30 μL per well of Odyssey blocking buffer were added to each plate and incubated 1 hour at room temperature. Blocking buffer was removed and 20 μL per well of primary antibody was added (symmetric di-methyl arginine diluted 1:100 in Odyssey buffer with 0.1% Tween 20 (v/v)) and plates were incubated overnight (16 hours) at 4° C. Plates were washed 5 times with 100 μL per well of wash buffer. Next 20 μL per well of secondary antibody was added (1:200 800CW goat anti-rabbit IgG (H+L) antibody, 1:1000 DRAQS (Biostatus limited) in Odyssey buffer with 0.1% Tween 20 (v/v)) and incubated for 1 hour at room temperature. The plates were washed 5 times with 100 μL per well wash buffer then 1 time with 100 μL per well of water. Plates were allowed to dry at room temperature then imaged on the Licor Odyssey machine which measures integrated intensity at 700 nm and 800 nm wavelengths. Both 700 and 800 channels were scanned.
# First, the ratio for each well was determined by:
# Each plate included fourteen control wells of DMSO only treatment (minimum inhibition) as well as fourteen control wells for maximum inhibition treated with 3 μM of a reference compound (Background wells). The average of the ratio values for each control type was calculated and used to determine the percent inhibition for each test well in the plate. Reference compound was serially diluted three-fold in DMSO for a total of nine test concentrations, beginning at 3 μM. Percent inhibition was determined and IC50 curves were generated using triplicate wells per concentration of compound.
# Z-138 cells [2] = assay: Z-138 Proliferation Assay (Cell Titer Glo, 5 days); type: cell-based; conditions: Homo sapiens, 120 h, Table A-2, 5 days, top concentration 20 μM
# In short: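 Exponentially growing Z-138 cells (10,000 cells/ml) in RPMI 1640 with 10% FBS are exposed to nine-point 3-fold dilutions (final top concentration 20 μM, 0.2% DMSO) for 5 days at 37° C. Viability is measured as ATP by CellTiter-Glo luminescence. The 50% inhibitory concentration comes from a 4-parameter fit.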
Compound,EC50 (Z-138 cells [1]),EC50 (Z-138 cells [2])
O=C(COc1cccc2cccnc12)NCC(O)CN1CCc2ccccc2C1 (centres unmarked) [Compound A6],< 100 nM,101 to 1000 nM
O=C(COc1cccc(F)c1)NCC(O)CN1CCc2ccccc2C1 (centres unmarked) [Compound A7],101 to 1000 nM,10000 to 50000 nM
N#Cc1cccc(OCC(=O)NCC(O)CN2CCc3ccccc3C2)c1 (centres unmarked) [Compound A8],101 to 1000 nM,10000 to 50000 nM
Cc1ccc(OCC(=O)NCC(O)CN2CCc3ccccc3C2)cc1 (centres unmarked) [Compound A9],10000 to 50000 nM,10000 to 50000 nM
N#Cc1ccc(OCC(=O)NCC(O)CN2CCc3ccccc3C2)cc1 (centres unmarked) [Compound A11],101 to 1000 nM,10000 to 50000 nM
COc1ccc(OCC(=O)NCC(O)CN2CCc3ccccc3C2)cc1 (centres unmarked) [Compound A12],101 to 1000 nM,10000 to 50000 nM
Cc1ccccc1OCC(=O)NCC(O)CN1CCc2ccccc2C1 (centres unmarked) [Compound A15],101 to 1000 nM,1000 to 10000 nM
O=C(COc1ccccc1F)NCC(O)CN1CCc2ccccc2C1 (centres unmarked) [Compound A16],101 to 1000 nM,10000 to 50000 nM
N#Cc1ccccc1OCC(=O)NCC(O)CN1CCc2ccccc2C1 (centres unmarked) [Compound A17],101 to 1000 nM,10000 to 50000 nM
O=C(CNc1ccccc1)NCC(O)CN1CCc2ccccc2C1 (centres unmarked) [Compound A18],1000 to 10000 nM,> 20000 nM
CC(Oc1ccccc1)C(=O)NCC(O)CN1CCc2ccccc2C1 (centres unmarked) [Compound A19],101 to 1000 nM,1000 to 10000 nM
COc1cccc(OCC(=O)NCC(O)CN2CCc3ccccc3C2)c1 (centres unmarked) [Compound A20],101 to 1000 nM,1000 to 10000 nM
CC(=O)Nc1ccc(OCC(=O)NCC(O)CN2CCc3ccccc3C2)cc1 (centres unmarked) [Compound A21],101 to 1000 nM,> 20000 nM
COc1ccccc1OCC(=O)NCC(O)CN1CCc2ccccc2C1 (centres unmarked) [Compound A22],101 to 1000 nM,1000 to 10000 nM
Cn1ncc2ccc(OCC(=O)NCC(O)CN3CCc4ccccc4C3)cc21 (centres unmarked) [Compound A23],101 to 1000 nM,1000 to 10000 nM
Cc1cccc(OCC(=O)NCC(O)CN2CCc3ccccc3C2)c1 (centres unmarked) [Compound A26],101 to 1000 nM,1000 to 10000 nM
CN(C)c1cccc(OCC(=O)NCC(O)CN2CCc3ccccc3C2)c1 (centres unmarked) [Compound A27],101 to 1000 nM,1000 to 10000 nM
CS(=O)(=O)Nc1cccc(OCC(=O)NCC(O)CN2CCc3ccccc3C2)c1 (centres unmarked) [Compound A28],101 to 1000 nM,1000 to 10000 nM
NC(=O)c1ccccc1OCC(=O)NCC(O)CN1CCc2ccccc2C1 (centres unmarked) [Compound A29],101 to 1000 nM,> 20000 nM
CC(=O)Nc1cccc(OCC(=O)NCC(O)CN2CCc3ccccc3C2)c1 (centres unmarked) [Compound A31],101 to 1000 nM,10000 to 50000 nM
O=C(COc1ccccc1)NC[C@H](O)CN1CCc2ccccc2C1 [Compound A32],101 to 1000 nM,10000 to 50000 nM
NC(=O)c1cccc(OCC(=O)NCC(O)CN2CCc3ccccc3C2)c1 (centres unmarked) [Compound A34],101 to 1000 nM,10000 to 50000 nM
CN(C)c1ccc(OCC(=O)NCC(O)CN2CCc3ccccc3C2)cc1 (centres unmarked) [Compound A35],101 to 1000 nM,10000 to 50000 nM
CC(=O)Nc1ccccc1OCC(=O)NCC(O)CN1CCc2ccccc2C1 (centres unmarked) [Compound A36],101 to 1000 nM,> 20000 nM
CS(=O)(=O)c1ccccc1OCC(=O)NCC(O)CN1CCc2ccccc2C1 (centres unmarked) [Compound A37],< 100 nM,1000 to 10000 nM
CN(C)c1ccccc1OCC(=O)NCC(O)CN1CCc2ccccc2C1 (centres unmarked) [Compound A38],< 100 nM,1000 to 10000 nM
CC(Oc1cccc2cccnc12)C(=O)NCC(O)CN1CCc2ccccc2C1 (centres unmarked) [Compound A39],< 100 nM,101 to 1000 nM
O=C(COc1ccccc1C1CCCCC1)NCC(O)CN1CCc2ccccc2C1 (centres unmarked) [Compound A40],101 to 1000 nM,1000 to 10000 nM

Compound,EC50 (Z-138 cells [1]),EC50 (Z-138 cells [2])
CS(=O)(=O)Nc1ccc(OCC(=O)NCC(O)CN2CCc3ccccc3C2)cc1 (centres unmarked) [Compound A42],101 to 1000 nM,> 20000 nM
CC(C)(Oc1cccc2cccnc12)C(=O)NCC(O)CN1CCc2ccccc2C1 (centres unmarked) [Compound A43],101 to 1000 nM,1000 to 10000 nM
O=C(COc1cccc2cccnc12)NC[C@H](O)CN1CCc2ccccc2C1 [Compound A44],101 to 1000 nM,10000 to 50000 nM
O=C(COc1cccc2cccnc12)NC[C@@H](O)CN1CCc2ccccc2C1 [Compound A45],< 100 nM,101 to 1000 nM
Cn1cnc2cc(OCC(=O)NCC(O)CN3CCc4ccccc4C3)ccc21 (centres unmarked) [Compound A46],101 to 1000 nM,10000 to 50000 nM
CS(=O)(=O)c1cccc(OCC(=O)NCC(O)CN2CCc3ccccc3C2)c1 (centres unmarked) [Compound A47],101 to 1000 nM,1000 to 10000 nM
O=C(COc1cccc2ccc(N3CCOCC3)nc12)NCC(O)CN1CCc2ccccc2C1 (centres unmarked) [Compound A48],101 to 1000 nM,10000 to 50000 nM
O=C(COc1ccccc1N1CCOCC1)NCC(O)CN1CCc2ccccc2C1 (centres unmarked) [Compound A49],101 to 1000 nM,1000 to 10000 nM
O=C(COc1ccccc1-c1cc[nH]n1)NCC(O)CN1CCc2ccccc2C1 (centres unmarked) [Compound A50],< 100 nM,1000 to 10000 nM
CS(=O)(=O)Nc1ccccc1OCC(=O)NCC(O)CN1CCc2ccccc2C1 (centres unmarked) [Compound A53],101 to 1000 nM,1000 to 10000 nM
O=C(COc1cccc2c1CCCC2)NCC(O)CN1CCc2ccccc2C1 (centres unmarked) [Compound A64],101 to 1000 nM,1000 to 10000 nM
NS(=O)(=O)c1ccccc1OCC(=O)NCC(O)CN1CCc2ccccc2C1 (centres unmarked) [Compound A65],101 to 1000 nM,1000 to 10000 nM
O=C(COc1cccc2ccccc12)NCC(O)CN1CCc2ccccc2C1 (centres unmarked) [Compound A66],101 to 1000 nM,1000 to 10000 nM
O=C(COc1ccccc1-c1cc[nH]n1)NC[C@@H](O)CN1CCc2ccccc2C1 [Compound A67],< 100 nM,1000 to 10000 nM
O=C(COc1ccccc1-c1cc[nH]n1)NC[C@H](O)CN1CCc2ccccc2C1 [Compound A68],101 to 1000 nM,> 20000 nM
O=C(COc1ccc2ncn(C3CCNCC3)c2c1)NCC(O)CN1CCc2ccccc2C1 (centres unmarked) [Compound A70],101 to 1000 nM,> 20000 nM
CN1CCC(n2cnc3ccc(OCC(=O)NCC(O)CN4CCc5ccccc5C4)cc32)CC1 (centres unmarked) [Compound A71],101 to 1000 nM,> 20000 nM
C[C@@H](Oc1cccc2cccnc12)C(=O)NC[C@H](O)CN1CCc2ccccc2C1 [Compound A73],< 100 nM,101 to 1000 nM
C[C@@H](Oc1cccc2cccnc12)C(=O)NC[C@@H](O)CN1CCc2ccccc2C1 [Compound A74],101 to 1000 nM,1000 to 10000 nM
CN1CCC(n2ncc3cc(OCC(=O)NCC(O)CN4CCc5ccccc5C4)ccc32)C1 (centres unmarked) [Compound A96],101 to 1000 nM,10000 to 50000 nM
COc1ccc2cccc(OCC(=O)NC[C@H](O)CN3CCc4ccccc4C3)c2n1 [Compound A97],101 to 1000 nM,1000 to 10000 nM
COc1ccc2cccc(OCC(=O)NC[C@@H](O)CN3CCc4ccccc4C3)c2n1 [Compound A98],< 100 nM,1000 to 10000 nM
CN1CCc2c(cccc2OCC(=O)NCC(O)CN2CCc3ccccc3C2)C1 (centres unmarked) [Compound A99],101 to 1000 nM,1000 to 10000 nM
O=C(COc1cccc2c1OCCO2)NCC(O)CN1CCc2ccccc2C1 (centres unmarked) [Compound A100],< 100 nM,1000 to 10000 nM
CC(=O)N1CCc2c(cccc2OCC(=O)NCC(O)CN2CCc3ccccc3C2)C1 (centres unmarked) [Compound A101],< 100 nM,1000 to 10000 nM
CS(=O)(=O)N1CCc2c(cccc2OCC(=O)NCC(O)CN2CCc3ccccc3C2)C1 (centres unmarked) [Compound A102],< 100 nM,1000 to 10000 nM
O=C(COc1ccccc1C1CCNCC1)NCC(O)CN1CCc2ccccc2C1 (centres unmarked) [Compound A103],101 to 1000 nM,> 20000 nM
